Experimental findings from patent publication US6569878B1, “Substituted 4-amino-thiazol-2-yl compounds as cyclin-dependent kinase inhibitors” (Agouron Pharmaceuticals Inc., priority 1997, dated 2003) are described below.

Test [1] concerns the target T1, complex of human CDK4 and cyclin D3 (Homo sapiens, UniProt P11802).
T1 construct: made in house; host or cells: insect cells, co-infected with baculovirus
The experiment in a line: Inhibition of CDK4/cyclin D retinoblastoma kinase activity (D-type cyclin is D3). The test is classed as biochemical. The following applies: superscript a: D-type cyclin is D3; apparent Ki; read-out: Ki CDK 4/D. In outline: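 Apparent Ki derived by fitting background-corrected activity to competitive (or, for tight binders, competitive tight-binding) equations with measured ATP Km. Rb phosphorylation by radiolabelled ATP was measured at 30°C, 20 min standard or 60 min at 5 nM complex for tight binders, via nitrocellulose capture and phosphorimager.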

For the next test, the target named is T2, CDK2/cyclin A (Homo sapiens, UniProt P24941).
T2 construct: made in house; host or cells: CDK2: insect cells (baculovirus); cyclin A: E. coli, then limited proteolysis
The experiment in a line: Inhibition of CDK2/cyclin A retinoblastoma kinase activity. Type of test: biochemical. As to conditions: read-out: Ki CDK 2/A. The method in brief: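 Baculovirus-expressed CDK2 with excess proteolyzed cyclin A (or purified complex), 150 nM or 5 nM, phosphorylating an Rb fragment with 25 μM [32/33P]ATP, pH 7.4, 30° C, 20 min. Filter-captured radioactivity by phosphorimager; apparent Ki from fits to competitive or tight-binding competitive inhibition using measured ATP Km.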

The target in test [2] is T3, human CDK1 (cdc2) and cyclin B (Homo sapiens, UniProt P06493).
T3 construct: purchased New England Biolabs (Beverly Mass.)
T3 sequence (P06493 whole entry): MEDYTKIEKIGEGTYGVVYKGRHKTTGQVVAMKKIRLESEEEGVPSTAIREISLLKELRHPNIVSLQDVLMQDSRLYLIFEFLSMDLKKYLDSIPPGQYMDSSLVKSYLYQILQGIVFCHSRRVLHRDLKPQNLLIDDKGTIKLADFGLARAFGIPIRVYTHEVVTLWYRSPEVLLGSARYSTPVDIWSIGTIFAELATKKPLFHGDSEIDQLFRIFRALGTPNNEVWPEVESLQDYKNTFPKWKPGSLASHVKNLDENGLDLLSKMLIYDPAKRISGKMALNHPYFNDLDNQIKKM
T3 sequence (P14635 whole entry partner): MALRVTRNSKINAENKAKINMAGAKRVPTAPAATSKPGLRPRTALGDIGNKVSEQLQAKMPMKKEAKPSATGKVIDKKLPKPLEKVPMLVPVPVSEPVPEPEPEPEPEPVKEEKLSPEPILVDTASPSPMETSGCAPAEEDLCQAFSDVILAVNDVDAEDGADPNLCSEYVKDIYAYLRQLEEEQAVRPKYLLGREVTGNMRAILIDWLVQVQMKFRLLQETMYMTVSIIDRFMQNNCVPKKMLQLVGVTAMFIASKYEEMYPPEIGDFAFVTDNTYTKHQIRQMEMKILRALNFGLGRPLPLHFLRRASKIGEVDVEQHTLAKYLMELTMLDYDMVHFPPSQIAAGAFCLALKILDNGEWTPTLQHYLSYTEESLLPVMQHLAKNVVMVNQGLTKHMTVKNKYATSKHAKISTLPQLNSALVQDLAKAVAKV
As to the kind of experiment: Inhibition of CDK1(cdc2)/cyclin B histone H1 kinase activity. The test is classed as biochemical. The following applies: read-out: Ki CDK 1/B. Here is the method: Cyclin-dependent kinase activity was measured by quantifying the enzyme-catalyzed, time-dependent incorporation of radioactive phosphate from [^32P]ATP or [^33P]ATP into a protein substrate. Unless noted otherwise, assays were performed in 96-well plates in a total volume of 50 μL, in the presence of 10 mM HEPES (N-[2-hydroxyethyl]piperazine-N′-[2-ethanesulfonic acid]) (pH 7.4), 10 mM MgCl2, 25 μM adenosine triphosphate (ATP), 1 mg/mL ovalbumin, 5 μg/mL leupeptin, 1 mM dithiothreitol, 10 mM β-glycerophosphate, 0.1 mM sodium vanadate, 1 mM sodium fluoride, 2.5 mM ethylene glycol-bis(β-aminoethyl ether)-N,N,N′N′-tetraacetic acid (EGTA), 2% (v/v) dimethylsulfoxide, and 0.03-0.4 μCi [^32/33P]ATP per reaction. Reactions were initiated with enzyme, incubated at 30° C., and terminated after 20 minutes by the addition of ethylenediaminetetraacetic acid (EDTA) to 250 mM. The phosphorylated substrate was then captured on a nitrocellulose or phosphocellulose membrane using a 96-well filtration manifold, and unincorporated radioactivity was removed by repeated washing with 0.85% phosphoric acid. Radioactivity was quantified by exposing the dried membranes to a phosphorimager.
Apparent Ki values were measured by assaying enzyme activity in the presence of different inhibitor compound concentrations and subtracting the background radioactivity measured in the absence of enzyme. The kinetic parameters (kcat, Km for ATP) were measured for each enzyme under the usual assay conditions by determining the dependence of initial rates on ATP concentration. Inhibition data were fit to an equation for competitive inhibition using Kaleidagraph (Synergy Software), or were fit to an equation for competitive tight-binding inhibition using the software KineTic (BioKin, Ltd.).
The complex of human CDK1 (cdc2) and cyclin B was purchased from New England Biolabs (Beverly Mass.). Alternatively, a CDK1/glutathione-S-transferase-cyclin B1 complex was purified using glutathione affinity chromatography from insect cells that had been co-infected with the corresponding baculovirus expression vectors. The assay was executed as described above at 30° C. using 2.5 units of cdc2/cyclin B, 10 μg Histone H1 protein, and 0.1-0.3 μCi [^32/33P]ATP per assay. Phosphorylated histone substrate was captured by microfiltration on a phosphocellulose P81 membrane and quantified using a phosphorimager as described above. Ki values were measured using the described curve-fitting programs.

Another test concerns HCT116. The experiment in a line: Inhibition of cell growth, MTT assay, HCT116. Type of test: cell-based, human. As to conditions: Homo sapiens, HCT-116. How it is done:
(§1) The water-insoluble purple formazan product was then detected spectrophotometrically. […] Plates were incubated for four hours before addition of inhibitor compounds. Different concentrations of inhibitor compounds were added in 0.5% (v/v) dimethylsulfoxide (15 μL/well), and cells were incubated at 37° C. (5% CO2) for four to six days (depending on cell type). At the end of the incubation, MTT was added to a final concentration of 0.2 mg/mL, and cells were incubated for 4 hours more at 37° C. After centrifugation of the plates and removal of medium, the absorbance of the formazan (solubilized in dimethylsulfoxide) was measured at 540 nm.
Background: Tetrazolium assays rely on reduction of a dye to a coloured formazan, in cell work by metabolically active cells.

Another test concerns U2-OS. As to the kind of experiment: Inhibition of cell growth, MTT assay, U2-OS. Type of test: cell-based. As to conditions: for IC50 / IC90: Homo sapiens, U2OS; for % inhibition of growth in parentheses after >25: concentration not given. Here is the method: as §1
For another test, the system named is Saos-2. The experiment in a line: Inhibition of cell growth, MTT assay, Saos-2. The following applies: Saos-2, MTT assay; for IC50 / IC90: Homo sapiens; for % inhibition of growth in parentheses after >25: concentration not given. Type of test: cell-based. Here is the method:
as §1

T1 sequence (P11802 whole entry): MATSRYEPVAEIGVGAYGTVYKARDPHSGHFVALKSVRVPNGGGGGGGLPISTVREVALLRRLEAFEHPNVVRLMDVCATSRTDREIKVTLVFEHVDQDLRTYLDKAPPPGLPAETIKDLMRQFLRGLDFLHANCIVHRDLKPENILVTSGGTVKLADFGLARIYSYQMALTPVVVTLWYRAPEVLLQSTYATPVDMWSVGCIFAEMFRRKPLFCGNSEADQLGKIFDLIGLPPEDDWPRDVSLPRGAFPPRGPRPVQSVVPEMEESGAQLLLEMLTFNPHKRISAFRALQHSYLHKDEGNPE
T1 sequence (P30281 whole entry partner): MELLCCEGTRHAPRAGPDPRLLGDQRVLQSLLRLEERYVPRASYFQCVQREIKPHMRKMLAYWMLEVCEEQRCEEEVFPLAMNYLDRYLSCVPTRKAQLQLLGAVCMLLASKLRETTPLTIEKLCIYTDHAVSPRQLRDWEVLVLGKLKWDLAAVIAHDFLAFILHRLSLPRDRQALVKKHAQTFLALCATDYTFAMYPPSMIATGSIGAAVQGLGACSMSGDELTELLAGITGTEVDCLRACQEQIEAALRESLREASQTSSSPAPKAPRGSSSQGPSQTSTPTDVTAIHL

For orientation: IC50 means the concentration needed to halve the response being measured. Lower therefore signals higher potency. A word on the IC90: it is the concentration needed for an effect of 90%. Low values mean an effect from little substance, high ones a need for much substance. Consider `CC(=O)c1ccc(Nc2nc(N)c(C(=O)c3ccccc3[N+](=O)[O-])s2)cc1` [C(24), 1-{4-[4-Amino-5-(2-nitro-benzoyl)-thiazol-2-ylamino]-phenyl}-ethanone], for which the Ki in test [1] turned out to be 8 nM; at CDK2/cyclin A, 248 nM; in test [2] it was 46 nM. The values for the IC50 with HCT116, with U2-OS and in the test on Saos-2 were 700 nM, 1900 nM and 1400 nM, respectively. Also, the figures for the 90% effect concentration (IC90) with HCT116, with U2-OS and in the test with Saos-2 were 1500 nM, 3000 nM and 2800 nM, respectively.
`Nc1nc(Nc2ccc3nc[nH]c3c2)sc1C(=O)c1c(Cl)cc(C(F)(F)F)cc1Cl` [C(37), [4-Amino-2-(1H-benzoimidazol-6-ylamino)-thiazol-5-yl]-(2,6-dichloro-4-trifluoromethyl-phenyl)-methanone]: the Ki in test [1] came to 7 nM; on CDK2/cyclin A, 310 nM; in test [2], 233 nM. Further, the 50% inhibitory concentration (IC50) in the test on HCT116 worked out at 10000 nM; with U2-OS it was 16000 nM; in the test with Saos-2, 14000 nM. For the same molecule, the results for the IC90 with HCT116, in the test on U2-OS and in the test with Saos-2 were 25000 nM, more than 25000 nM and more than 25000 nM, respectively. For the same molecule, the “% inhibition of growth in parentheses after >25” value in the test with U2-OS is listed as “(80%)”; in the test with Saos-2, “(70%)”.
As for `Cc1ccsc1C(=O)c1sc(Nc2ccc(C(=O)C3COC(=O)[C@H]3N)cc2)nc1N` (stereo partly drawn) [C(45), trans-3RS-Amino-4RS-{4-[4-amino-5-(3-methyl-thiophene-2-carbonyl)-thiazol-2-ylamino]-benzoyl}-dihydro-furan-2-one], the results for the Ki (in test [1]; at CDK2/cyclin A; in test [2]) were 51 nM, 103 nM and 249 nM, respectively. For the same molecule, the values for the 50% inhibitory concentration (IC50) with HCT116, in the test with U2-OS and in the test on Saos-2 were 2000 nM, 5500 nM and 2000 nM, respectively. Also, the IC90 was determined as 8000 nM in the test with HCT116, 12000 nM with U2-OS and 10000 nM with Saos-2.
With `Cc1c(C(=O)c2sc(Nc3ccc(S(N)(=O)=O)cc3)nc2N)sc2ccccc12` [C(49), 4-[4-Amino-5-(3-methyl-benzo[b]thiophene-2-carbonyl)-thiazol-2-ylamino]-benzenesulfonamide], the Ki in test [1] is 23 nM; at CDK2/cyclin A, 10 nM; in test [2], 34 nM. For the same molecule, the IC50 worked out at 5600 nM in the test on HCT116, 14000 nM in the test with U2-OS and 4000 nM with Saos-2. Also, the results for the IC90 with HCT116, with U2-OS and with Saos-2 were 12000 nM, 22000 nM and 20000 nM, respectively.
Regarding `Nc1nc(Nc2ccc(N3CCOCC3)cc2)sc1C(=O)c1c(Cl)cccc1Cl` [C(55), [4-Amino-2-(4-morpholin-4-yl-phenylamino)-thiazol-5-yl]-(2,6-dichloro-phenyl)-methanone], the Ki was determined as 8.5 nM in test [1], 493 nM at CDK2/cyclin A and 504 nM in test [2]. The IC50 in the test with HCT116 amounted to 4300 nM; in the test with U2-OS it was 18000 nM; in the test on Saos-2, 17000 nM. For the same molecule, the IC90 in the test on HCT116 was 17000 nM; in the test with U2-OS it was more than 25000 nM; with Saos-2 it was more than 25000 nM. Moreover, the “% inhibition of growth in parentheses after >25” value in the test with U2-OS is given as “(74%)”; in the test with Saos-2, 69%.
On to `CN1CCN(c2ccc(Nc3nc(N)c(C(=O)c4c(Cl)cccc4Cl)s3)cc2)CC1` [C(71), {4-Amino-2-[4-(4-methyl-piperazin-1-yl)-phenylamino]-thiazol-5-yl}-(2,6-dichloro-phenyl)-methanone], for which the Ki on CDK2/cyclin A was 482 nM; in test [2] it was 827 nM.
For `CN1CCN(c2ccc(Nc3nc(N)c(C(=O)c4c(F)cccc4F)s3)cc2)CC1` [C(80), {4-Amino-2-[4-(4-methyl-piperazin-1-yl)-phenylamino]-thiazol-5-yl}-(2,6-difluoro-phenyl)-methanone], in that order: 220 nM and 325 nM.
The like results for `CN1CCN(c2ccc(Nc3nc(N)c(C(=O)c4c(F)cccc4C(F)(F)F)s3)cc2)CC1` [C(100), {4-Amino-2-[4-(4-methyl-piperazin-1-yl)-phenylamino]-thiazol-5-yl}-(2-fluoro-6-trifluoromethyl-phenyl)-methanone] were, in that order, 620 nM and 911 nM.
`CC(C)(C)OC(=O)N1CCN(c2ccc(Nc3nc(N)c(C(=O)c4c(F)cccc4F)s3)cc2)CC1` [C(101), 4-Amino-2-[4-(1-tert-butoxycarbonyl-piperazine-4-yl)-phenylamino]-thiazol-5-yl-(2,6-difluorophenyl)-methanone]: the Ki in test [1] was found to be 103 nM; on CDK2/cyclin A, 300 nM; in test [2] it was 320 nM.
With `CNS(=O)(=O)c1ccc(Nc2nc(N)c(C(=O)c3c(F)cccc3F)s2)cc1` [C(108), 4-[4-Amino-5-(2,6-difluoro-benzoyl)-thiazol-2-ylamino]-N-methyl-benzenesulfonamide], the Ki was determined as 23 nM in test [1], 6.8 nM at CDK2/cyclin A and 9 nM in test [2]. The values for the half-inhibitory concentration (IC50) in the test on U2-OS and in the test on Saos-2 were 1400 nM and 310 nM, respectively. Besides, the IC90 with U2-OS was 4800 nM; in the test on Saos-2, 3200 nM.
As to `CN(C)S(=O)(=O)c1ccc(Nc2nc(N)c(C(=O)c3c(F)cccc3F)s2)cc1` [C(109), 4-[4-Amino-5-(2,6-difluoro-benzoyl)-thiazol-2-ylamino]-N,N-dimethyl-benzenesulfonamide], the Ki was 83 nM in test [1], 28 nM on CDK2/cyclin A and 35 nM in test [2]. Besides, the results for the 50% inhibitory concentration (IC50) with U2-OS and in the test on Saos-2 were 4700 nM and 1500 nM, respectively. Also, the figures for the 90% effect concentration (IC90) in the test on U2-OS and in the test on Saos-2 were 19000 nM and 14000 nM, respectively.
In the case of `CN1CCN(S(=O)(=O)c2ccc(Nc3nc(N)c(C(=O)c4c(F)cccc4F)s3)cc2)CC1` [C(116), {4-Amino-2-[4-(4-methyl-piperazine-1-sulfonyl)-phenylamino]-thiazol-5-yl}-(2,6-difluoro-phenyl)-methanone], the Ki was found to be 121 nM in test [1], 120 nM at CDK2/cyclin A and 77 nM in test [2].
In the case of `NC(=O)N1CCN(c2ccc(Nc3nc(N)c(C(=O)c4c(F)cccc4F)s3)cc2)CC1` [C(123), {4-Amino-2-[4-(4-carbamoyl-piperazin-1-yl)-phenylamino]-thiazol-5-yl}-(2,6-difluoro-phenyl)-methanone], the Ki is 15.4 nM in test [1] and 164 nM on CDK2/cyclin A. For the same molecule, the results for the IC50 in the test on HCT116, with U2-OS and in the test with Saos-2 were 2700 nM, 7100 nM and 2900 nM, respectively. The results for the IC90 in the test on HCT116, with U2-OS and with Saos-2 were 7000 nM, 12000 nM and 5700 nM, respectively.
In the case of `Cc1cc(N)sc1C(=O)c1sc(Nc2ccc(S(N)(=O)=O)cc2)nc1N` [D(5)], the figures for the Ki (in test [1]; on CDK2/cyclin A) were 159 nM and 233 nM, respectively. For the same molecule, the IC50 in the test on HCT116 is 1900 nM; with U2-OS, more than 25000 nM; in the test with Saos-2 it was 17000 nM. Moreover, the values for the IC90 in the test with HCT116 and in the test with Saos-2 were 5000 nM and 25000 nM, respectively.
For `Nc1nc(Nc2ccc(S(=O)(=O)NCC3CCNCC3)cc2)sc1C(=O)c1c(F)cccc1F` [J(4), 4-[4-Amino-5-(2,6-difluoro-benzoyl)-thiazol-2-ylamino]-N-piperidin-4-ylmethyl-benzenesulfonamide], the Ki was found to be 10.2 nM in test [1], 13.5 nM on CDK2/cyclin A and 22 nM in test [2].
